# Results: patent US9250249B2, “Autophagy and phospholipidosis pathway assays” (Enzo Biochem, Inc., priority 2008, dated 2016)
# Read-outs that look alike come from different tables or passages of the source.
# Key:
# U2OS cells [1] = test: Lipid-Tox fluorescent phospholipid analog-based phospholipidosis assay; format: cell-based, human; details: 24 hours co-incubation with Lipid-Tox dye and drug
# Experimental: Many assays of phospholipidosis, including the Lipid-Tox assay (Invitrogen, Carlsbad, Calif.), are based upon co-incubating cells with a fluorescent phospholipid analog for an extended period of time, along with the drug or test agent being evaluated, and then monitoring signal generation in fixed and permeabilized cells. Dye 1 is not a fluorescent phospholipid analog, but instead is a cationic amphiphilic fluorophore tracer. Cells are incubated with the drug or test agent in isolation and then briefly treated with the tracer dye before evaluation in live cells. […] Choloroquine, a prototypical phospholipidosis-inducing agent, and bafilomycin A, an agent well known to induce the accumulation of autophagosomes, were evaluated using both Dye 1 and Lipid-Tox dye-based assays (FIG. 3). […] Cells stained with Lipid-Tox dye (solid triangles dash-dot line) were incubated in the presence of the fluorescent lipid for 24 hours during treatment with the drugs.
# U2OS cells [2] = test: Multiplexed CF-PE / Dye 1 / Hoechst 33342 microplate assay distinguishing phospholipidosis from autophagy pathway inhibition; format: cell-based, human; details: 24 h with CF-PE medium and test compound; for green signal (CF-PE) relative to vehicle-treated controls: ex 492 nm, em 517 nm; for red signal (Dye 1) relative to vehicle-treated controls: then Dye 1 15 min
# Experimental: For example, CF-PE was suspended in ethanol and diluted in the cell culture medium (McCoy's 5a modified medium, as described in Example 3) to give a solution (CF-PE medium) with final concentration of 50 μM (0.46% ethanol). […] medium was then sonicated and filtered through a […] filter. The prepared was then applied to U2OS cells growing in a 96-well microplate. After an equilibration period of 24 h, the cell culture medium was replaced with CF-PE medium with or without each test compound, and the cells were incubated at 37° C. for an additional 24 h. After incubation, the cells were rinsed with medium and further incubated with the same medium containing Dye 1 and Hoechst 33342 dye for an additional 15 min at 37° C. in 5% CO2 atmosphere.
# Fluorescence signal was determined using a standard microplate reader, as described in example 4, except that CF-PE was additionally read at an excitation wavelength of 492 nm and an emission wavelength of 517 nm. […] Generalized cytotoxicity is evident as a substantial decrease in blue signal (≧30%) relative to vehicle-treated control cells.
# U2OS cells [3] = test: Cell number per well by Hoechst 33342 fluorescence (generalized compound toxicity); details: for Relative Hoechst Stain (intensity of Hoechst 33342 fluorescence of treated cells compared to the untreated control; number of cells remaining): 18 hours, single concentration per compound; for generalized cellular toxicity (loss of cells / decrease in Hoechst 33342 signal): greater than 30% decrease in cell number flagged as toxic
# Experimental: (§2) Fluorescence intensity of the cells cultured on the 96-well plates was measured using a FLUOstar OPTIMA Multifunction Microplate Reader (BMG LabTech, Offenburg, Germany). […] Fluorescence intensity was expressed as percentage of the vehicle control value.
# (§3) In the preliminary screen, test agents were employed at a single dose in an effort to identify any potential lysosome-modifying agents.
# U2OS cells [4] = test: Fluorescence microplate-based lysosomal perturbation assay (Dye 1 fluorescence), incl. ICCB library screen; details: for Relative Lyso Stain (intensity of Dye 1 fluorescence of treated cells compared to the untreated control): 18 hours, single concentration per compound; for vacuolation / expansion of lysosomal compartment detected by Dye 1 assay: Dye 1 stained post drug incubation; for hit call in ICCB library screen (Dye 1 accumulation): ICCB known bioactives library screen
# Experimental: In order to increase throughput and reduce handling time, the fluorescence microscopy-based lysosomal perturbation assay was scaled up to a 96-well microplate plate assay format and analyzed using a fluorescence microplate reader.
# as §2, §3
# [5] = pH dependence of Dye 1 fluorescence; format: physicochemical; details: pH range of 4.0 to 9.0
# cultured cells = details: high micromolar concentrations; cited from earlier work
# U2OS cells [6] = details: for Relative Hoechst Stain (intensity of Hoechst 33342 fluorescence of treated cells compared to the untreated control; number of cells remaining): human, 18 h
# Experimental: as §2, §3
# [7] = tested on: U-2-OS human osteosarcoma cells; test: In vitro model of sphingolipidosis (Niemann-Pick mimic), microplate readout at 680 nm and 480 nm; format: cell-based
# Source text: Stable cell lines derived from patients with Niemann-Pick disease can not be found in cell line repositories, such as American Type […] Collection (Manassas, Va.), and are not readily available to the research community. Consequently, an in vitro tissue culture model of sphingolipidosis was devised using 2R,3S,4E)-N-methyl-5-(4′pentylphenyl)-2-aminopent-4-ene-1,3-diol, designated SK1-I (BML-258), a potent, water soluble, isozyme-specific inhibitor of sphingosine kinase-1. […] U-2-OS human osteosarcoma cells were seeded at 22,500 cells/well, grown overnight, and then treated with a final concentration of 0, 2.5, 5, 10 or 20 μM of SK1-I for 18.5 hours. Next, the cells were briefly treated with compound 1 and the nuclear Hoechst 33342 dye, as described in Example 7. Fluorescence signal was read on a BioTek Synergy Mx microplate reader at excitation values of 340 and 540 nm and emission values of 480 and 680 nm. […] Fluorescence microscope-based examination of the wells confirmed that compound 1 staining of the cells was confined to the vacuolar structures. This in vitro model confirms the feasibility of using the assay for detecting aberrant accumulation of sphingolipids in cells, and by extension the feasibility of using the assay in monitoring inherited lysosomal storage diseases, such as Niemann-Pick disease.
# [8] = tested on: U2OS human osteosarcoma cells; test: Fluorescence microscopy-based lysosomal perturbation assay (Dye 1 staining); format: cell-based; details: U2OS cells pre-treated with drug (chloroquine 8-64 μM, 18 hours), Dye 1 15 min
# Experimental: (§1) U2OS human osteosarcoma cells were maintained in McCoy's 5a modified medium supplemented with 10% FBS and 100 units/ml penicillin/streptomycin (Invitrogen, Carlsbad, Calif.) in a humidified 37° C., 5% CO2 environment. Cells were allowed to proliferate on glass slides or were seeded into 96-well plates at a density of 2×10^4 cells/well and allowed to attach overnight. The cells were plated such that at the end of the experiment, they reached about 90% confluency.
# The fluorescence-based lysosomal perturbation assay was established by first incubating cells cultivated on glass slides for 4-24 hours with chloroquine (8-64 μM final concentration), a well known phospholipidosis-inducing agent. Control cells were incubated with 0.1% (v/v) dimethyl sulfoxide (DMSO), which served as the vehicle control. Cells were then briefly (15 min) incubated with a combination of Dye 1 and Hoechst 33342 dye. Following incubation, cells grown on glass microscope slides were covered with glass coverslips, sealed with nail polish and observed using an inverted Axiovert 200M microscope (Carl Zeiss, Inc., Oberkochen, Germany). Images were acquired with a 63× objective lens (Zeiss).
# Cells were subsequently stained with Dye 1 for 15 minutes. Nuclei were counter-stained with Hoechst 33342 dye. In FIG. 1, control U2OS cells are shown in (A), cells pre-treated for 18 hours with 8 μM chloroquine in (B), cells pre-treated for 18 hours with 16 μM chloroquine in (C) and cells pre-treated for 18 hours with 64 μM chloroquine in (D). This staining pattern was also consistently observed for other drugs that are known to induce phospholipidosis, such as chlorpromazine, fluoxetine, pimozide and verapamil (further described in Example 4). […] The ability of Dye 1 to detect vacuole accumulation in the described in vitro cell culture model mimicking Fabry disease strongly supports the present invention and its suitability for the detection of genetically derived lysosomal storage diseases.
# HeLa cells = test: Fluorescence microscopy lysosomal perturbation assay with Dye 6; format: cell-based; details: chloroquine 120 μM for 6 hours, Dye 6 15 min
# Experimental: as §1, with “HeLa” for “U2OS human osteosarcoma”, “Dulbecco's” for “McCoy's 5a”, “modified Eagles” for “modified”, “FBS,” for “FBS and”, “Calif.) and MEM non essential amino acids” for “Calif.)”, “slides” for “slides or were seeded into 96-well plates”
# The fluorescence-based lysosomal perturbation assay was established by first incubating cells cultivated on glass slides for 6 hours with chloroquine (120 μM final concentration), a well known phospholipidosis-inducing agent. Control cells were incubated with 0.1% (v/v) dimethyl sulfoxide (DMSO), which served as the vehicle control. Cells were then briefly (15 min) incubated with Dye 6 at room temperature. Following incubation, cells grown on glass microscope slides were covered with glass coverslips, sealed with nail polish and observed using an Olympus BX51 microscope. Images were acquired with a 40× objective lens. […] The untreated cells gave a low level of fluorescent staining.
# [9] = Homo sapiens, 18 h, read-out: EC50 (Dye 1-based assay)
smiles,measurement,setting,value
CO/C1=C\C(C)=C\[C@@H](C)[C@@H](O)[C@@H](C)C/C(C)=C/C=C/[C@H](OC)[C@@H]([C@@H](C)[C@@H](O)[C@H](C)[C@@]2(O)C[C@@H](O)[C@H](C)[C@@H](C(C)C)O2)OC1=O [Bafilomycin A1],vacuolation / expansion of lysosomal compartment detected by Lipid-Tox assay,U2OS cells [1],only Dye 1 identified the increased vacuolation
same,green signal (CF-PE) relative to vehicle-treated controls,U2OS cells [2],low green signal
same,red signal (Dye 1) relative to vehicle-treated controls,U2OS cells [2],increased red signal
same,Relative Hoechst Stain (intensity of Hoechst 33342 fluorescence of treated cells compared to the untreated control; number of cells remaining),U2OS cells [3],58%
same,generalized cellular toxicity (loss of cells / decrease in Hoechst 33342 signal),U2OS cells [3],cytotoxic
same,Relative Lyso Stain (intensity of Dye 1 fluorescence of treated cells compared to the untreated control),U2OS cells [4],176%
same,vacuolation / expansion of lysosomal compartment detected by Dye 1 assay,U2OS cells [4],increase vacuole number and volume
same,vacuolation / expansion of lysosomal compartment detected by Dye 1 assay,U2OS cells [4]; listed as bafilomycin A,increased vacuolation
same,EC50,"U2OS cells [4]; read-out: calculated EC50 value in Dye 1 based assay, 24 hours treatment, Dye 1 15 minutes post drug",0.003 µM
"CN(C)CCNc1c(F)c(F)c(NCCN(C)C)c2c1C(=O)c1c(O)ccc(O)c1C2=O [Dye 1, 1,4-bis(2-(dimethylamino)ethylamino)-2,3-difluoro-5,8-dihydroxyanthracene-9,10-dione]",fluorescence emission intensity and wavelength maximum versus pH,[5],not significantly altered
CN(C)CCCn1cc(C2=C(c3c[nH]c4ccccc34)C(=O)NC2=O)c2ccccc21 [GF-109203X],Relative Hoechst Stain (intensity of Hoechst 33342 fluorescence of treated cells compared to the untreated control; number of cells remaining),U2OS cells [3],87%
same,Relative Lyso Stain (intensity of Dye 1 fluorescence of treated cells compared to the untreated control),U2OS cells [4],197%
"CC(C)NCC(O)COc1cccc2ccccc12 (stereo not drawn) [Propranolol (S-), Propranolol]",time to half maximum uptake,cultured cells,4 to 10 min
same,time to steady state of cellular uptake,cultured cells,40 to 60 min
CCCCOc1cc(CC2CNC(=O)N2)ccc1OC (stereo not drawn) [Ro 20-1724],Relative Hoechst Stain (intensity of Hoechst 33342 fluorescence of treated cells compared to the untreated control; number of cells remaining),U2OS cells [6],53%
same,Relative Lyso Stain (intensity of Dye 1 fluorescence of treated cells compared to the untreated control),U2OS cells [4],190%
Cn1cc(C2=C(c3cn(CCCSC(=N)N)c4ccccc34)C(=O)NC2=O)c2ccccc21 [Ro 31-8220],Relative Hoechst Stain (intensity of Hoechst 33342 fluorescence of treated cells compared to the untreated control; number of cells remaining),U2OS cells [3],89%
same,Relative Lyso Stain (intensity of Dye 1 fluorescence of treated cells compared to the untreated control),U2OS cells [4],146%
same,hit call in ICCB library screen (Dye 1 accumulation),U2OS cells [4],positive hit
CC(=O)c1c(O)c(C)c(O)c(Cc2c(O)c3c(c(C(=O)/C=C/c4ccccc4)c2O)OC(C)(C)C=C3)c1O [Rottlerin],Relative Hoechst Stain (intensity of Hoechst 33342 fluorescence of treated cells compared to the untreated control; number of cells remaining),U2OS cells [3],34%
same,generalized cellular toxicity (loss of cells / decrease in Hoechst 33342 signal),U2OS cells [3],generally cytotoxic
same,generalized cellular toxicity (loss of cells / decrease in Hoechst 33342 signal),U2OS cells [3]; listed as rottlerin,significant toxicity
same,Relative Lyso Stain (intensity of Dye 1 fluorescence of treated cells compared to the untreated control),U2OS cells [4],187%
same,hit call in ICCB library screen (Dye 1 accumulation),U2OS cells [4],false positive hit
NC(=O)c1ccc(-c2nc(-c3ccc4c(c3)OCO4)c(-c3ccccn3)[nH]2)cc1 [SB-431542],Relative Hoechst Stain (intensity of Hoechst 33342 fluorescence of treated cells compared to the untreated control; number of cells remaining),U2OS cells [6],101%
same,Relative Lyso Stain (intensity of Dye 1 fluorescence of treated cells compared to the untreated control),U2OS cells [4],154%
same,hit call in ICCB library screen (Dye 1 accumulation),U2OS cells [4],positive hits
CCCCCc1ccc(/C=C/[C@H](O)[C@@H](CO)NC)cc1 [SK1-I],emission values at 680 nm (accumulation of sphingolipids within the vacuolar compartment),"[7]; U-2-OS, 0, 2.5, 5, 10 or 20 μM for 18.5 hours",Dose-dependent increases
same,cell viability (480 nm emission intensity from Hoechst dye),"[7]; U-2-OS, 0-20 μM for 18.5 hours",Cell viability was maintained under all treatment conditions
CC(C)(C)c1cc(C=C(C#N)C#N)cc(C(C)(C)C)c1O [Tyrphostin 9],Relative Hoechst Stain (intensity of Hoechst 33342 fluorescence of treated cells compared to the untreated control; number of cells remaining),U2OS cells [3],31%
same,Relative Lyso Stain (intensity of Dye 1 fluorescence of treated cells compared to the untreated control),U2OS cells [4],200%
CCN(CC)CCCC(C)Nc1ccnc2cc(Cl)ccc12 (stereo not drawn) [chloroquine],punctate pattern of cytoplasmic staining / levels of Dye 1 in the cells,[8],increased in a dose-dependent manner
same,vacuolation / expansion of lysosomal compartment detected by Lipid-Tox assay,U2OS cells [1],induced an expansion in the lysosomal compartment
same,fluorescence intensity of lysosomal staining with Dye 6,HeLa cells,increase in fluorescence intensity of lysosomal staining
same,green signal (CF-PE) relative to vehicle-treated controls,U2OS cells [2],increased green and red signal
same,red signal (Dye 1) relative to vehicle-treated controls,U2OS cells [2],increased green and red signal
same,vacuolation / expansion of lysosomal compartment detected by Dye 1 assay,U2OS cells [4],induced an expansion in the lysosomal compartment
same,EC50,U2OS cells [4]; [9],15 µM
CN(C)CCCN1c2ccccc2Sc2ccc(Cl)cc21 [chlorpromazine],punctate pattern of cytoplasmic staining / levels of Dye 1 in the cells,[8],increased in a dose-dependent manner
same,EC50,U2OS cells [4]; [9],6 µM
CNCCC(Oc1ccc(C(F)(F)F)cc1)c1ccccc1 (stereo not drawn) [fluoxetine],punctate pattern of cytoplasmic staining / levels of Dye 1 in the cells,[8],increased in a dose-dependent manner
same,generalized cellular toxicity (loss of cells / decrease in Hoechst 33342 signal),U2OS cells [6],toxic doses
O=c1[nH]c2ccccc2n1C1CCN(CCCC(c2ccc(F)cc2)c2ccc(F)cc2)CC1 [pimozide],generalized cellular toxicity (loss of cells / decrease in Hoechst 33342 signal),U2OS cells [6],toxic doses
COc1ccc(CCN(C)CCCC(C#N)(c2ccc(OC)c(OC)c2)C(C)C)cc1OC (stereo not drawn) [verapamil],punctate pattern of cytoplasmic staining / levels of Dye 1 in the cells,[8],increased in a dose-dependent manner
same,EC50,U2OS cells [4]; [9],30 µM
